Values of other authors as cited in patent US9206171B2, “6-{2 -[1-(6-methyl-3-pyridazinyl)-4-piperidinyl]ethoxy}-3-ethoxy-1,2-benzisoxazole bis-dihydrogenphosphate salt (1:2)” (Biota Scientific Management Pty Ltd, priority 2008, dated 2015).

Key:
[1] = facile endogenous cleavage of the ester moiety, regardless of excipient
[2] = patients using oral contraceptive formulations

aqueous solubility (in words) | bioavailability (in words) [1] | SMILES | interaction with oral contraceptive formulations [2]
poor aqueous solubility | poor bioavailability | CCOC(=O)c1ccc(OCCC2CCN(c3ccc(C)nn3)CC2)cc1 [Pirodavir, 4-[2-[1-(6-methyl-3-pyridazinyl)-4-piperidinyl]-ethoxy]benzoate] | –
– | – | Cc1cc(CCCOc2c(C)cc(-c3noc(C(F)(F)F)n3)cc2C)on1 [Pleconaril] | interact adversely
